Experimental data as given in paper PMC11460632, “Chemical modification of hyaluronan oligosaccharides differentially modulates hyaluronan–hyaladherin interactions” (The Journal of Biological Chemistry, 2024).
“Also recorded” adds a separate entry of the source. Each block holds one compound with its values, some of them ahead of it.

Legend:
Link_TSG6 = molecular target: T1, Link_TSG6 (Homo sapiens, UniProt P98066); assay: ITC of HA oligosaccharides binding to Link_TSG6; conditions: for N: 0.029 mM Link_TSG6, 0.29 mM oligosaccharide
T1 construct: made in house
Method: ITC experiments were performed using a MicroCal PEAQ-ITC instrument (Malvern Instruments). Oligosaccharide stock solutions were prepared at 0.29 mM (in 5 mM MES, pH 6.0) and injected (18 × 2 μl with 120 s spacing between injections) into the cell containing ∼200 μl Link_TSG6 (0.029 mM) in matched buffer at 25 °C. Data were fit to a one site binding model, after subtracting the heats from the last three injections to account for heat of dilution of the oligosaccharide into buffer. Each oligosaccharide was analyzed in four independently performed ITC experiments.

recombinant human TSG-6 = molecular target: T2, recombinant human TSG-6 (Homo sapiens, UniProt P19827+P98066); assay: In vitro HC-transfer assay (IαI + rhTSG-6, Western blot anti-HC1); assay type: biochemical; conditions: 15 μM HA, 1.8 μM IαI, rhTSG-6, 2 h at 37 °C; for Substrate for HC transfer: Table 6; for Activity as substrate for HC transfer (text): Western blot anti-HC1
T2 construct: TSG-6–mediated HC-transfer assays (using full-length TSG6); purchased R&D Systems
Method: Covalent transfer of HC from IαI onto unmodified and chemically modified HA oligosaccharides was analyzed using the assay described previously ([26]). All reactions were performed using a buffer of 20 mM Hepes, pH 7.5, 150 mM NaCl, and 5 mM MgCl2. In a “standard” assay, HA oligosaccharides were at 15 μM, human IαI ([97]) 1.8 at μM (based on a molecular weight of 180 kDa), and recombinant human TSG-6 (R&D Systems) at 2.8 μM (based on a molecular weight of 35 kDa). Reaction mixtures were analyzed by SDS-PAGE using 4 to 12% bis-tris polyacrylamide gels (Invitrogen). For Western blot analysis, proteins were transferred onto nitrocellulose membrane (GE Healthcare) and incubated with antisera against HC1 (CP7, 1:10,000; ([98])). Bound primary antibody was detected using goat-anti-rabbit IgG conjugated to IR dye (LI-COR Biosciences) and blots imaged using an Odyssey Clx near-IR fluorescence imaging system (LICOR Biosciences).

hisCD44_HABD^20–169 = molecular target: T3, hisCD44_HABD^20–169 (Homo sapiens, UniProt P16070); assay: MST of HA oligosaccharides binding to hisCD44_HABD^20–169; conditions: for % HAn^AN: percentage of binding affinity (KB) compared to the unmodified oligosaccharide of the same length / Kd: Table 2; for Kd: 10 mM Hepes pH 7.5, 150 mM NaCl, 0.05% Tween-20, 25 °C, mean (±SD), three titrations, read-out: KD; for % Binding affinity hisCD44_HABD^20–169: Table 6, relative to unmodified oligosaccharide of the same length, by MST
T3 construct: A novel construct consisting of residues 20 to 169 of human CD44 and an N-terminal six-histidine tag; made in house
Method: For hisCD44_HABD^20–169, interactions with HA oligosaccharides were assessed using MST. Protein (200 nM) was labeled with 5 μM red-Tris-NTA-650 dye following the manufacturer’s instructions in 10 mM Hepes, pH 7.4, 150 mM NaCl, 0.05% (v/v) Tween-20 (interaction buffer). Stock solutions of HA oligosaccharides (5 mM in interaction buffer) were serially diluted (1:1 in interaction buffer) 16 times before each concentration was mixed with an equal volume of labeled protein (10 nM final concentration hisCD44_HABD^20–169). Samples were loaded into standard glass capillaries (NanoTemper) and thermophoresis measured at 25 °C (with active temperature control) using a Monolith NT.115pico instrument (NanoTemper) running NT Control software (version 1.0.1). All experiments were performed in triplicate and data analyzed with the “KD fit model” in the NT Analysis software (version 2.0.2).

[1] = Table 1, ITC, 25 °C, 5 mM MES pH 6.0, mean ± SEM, four titrations
[2] = Table 1, ITC, 25 °C, 5 mM MES pH 6.0, mean ± SEM

T2 sequence (P98066 18-277): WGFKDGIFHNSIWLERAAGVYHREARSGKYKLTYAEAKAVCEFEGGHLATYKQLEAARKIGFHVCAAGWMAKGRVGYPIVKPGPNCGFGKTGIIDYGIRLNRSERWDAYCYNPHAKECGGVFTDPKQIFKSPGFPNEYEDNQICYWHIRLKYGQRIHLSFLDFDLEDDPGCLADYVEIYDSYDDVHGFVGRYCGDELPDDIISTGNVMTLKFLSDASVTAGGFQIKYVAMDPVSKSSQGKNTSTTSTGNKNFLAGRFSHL
T2 sequence (P19827 35-672 limits assumed): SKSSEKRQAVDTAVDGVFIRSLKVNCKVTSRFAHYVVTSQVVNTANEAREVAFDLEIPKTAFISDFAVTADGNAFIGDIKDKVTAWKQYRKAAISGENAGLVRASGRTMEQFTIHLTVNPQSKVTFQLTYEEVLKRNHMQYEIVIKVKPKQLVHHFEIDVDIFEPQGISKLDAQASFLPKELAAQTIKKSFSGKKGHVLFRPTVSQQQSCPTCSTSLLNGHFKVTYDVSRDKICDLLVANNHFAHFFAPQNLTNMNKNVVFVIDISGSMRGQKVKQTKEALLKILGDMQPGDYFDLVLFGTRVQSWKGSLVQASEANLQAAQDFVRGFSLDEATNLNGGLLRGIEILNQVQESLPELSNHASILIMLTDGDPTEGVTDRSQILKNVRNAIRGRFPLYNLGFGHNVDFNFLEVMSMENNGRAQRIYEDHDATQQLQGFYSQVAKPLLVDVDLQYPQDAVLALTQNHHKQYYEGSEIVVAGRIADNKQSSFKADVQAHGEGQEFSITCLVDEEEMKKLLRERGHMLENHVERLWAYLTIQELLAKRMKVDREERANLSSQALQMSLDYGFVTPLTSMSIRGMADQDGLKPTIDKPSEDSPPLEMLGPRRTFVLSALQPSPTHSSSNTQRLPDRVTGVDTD
T1 sequence (P98066 36-129 limits assumed): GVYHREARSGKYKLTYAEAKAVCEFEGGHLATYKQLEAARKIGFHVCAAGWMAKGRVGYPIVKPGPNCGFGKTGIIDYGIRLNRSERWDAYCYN
T3 sequence (P16070 20-169): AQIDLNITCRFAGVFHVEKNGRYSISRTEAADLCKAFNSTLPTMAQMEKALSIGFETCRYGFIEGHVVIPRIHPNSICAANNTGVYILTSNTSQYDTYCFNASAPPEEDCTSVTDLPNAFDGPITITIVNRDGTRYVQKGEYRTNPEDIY

Compound: CC(=O)N[C@H]1[C@H](O[C@H]2[C@H](O)[C@@H](O)[C@H](O[C@H]3[C@H](O)[C@@H](CO)O[C@@H](O[C@H]4[C@H](O)[C@@H](O)[C@H](O[C@H]5[C@H](O)[C@@H](CO)OC(O)[C@@H]5NC(C)=O)O[C@@H]4C(=O)O)[C@@H]3NC(C)=O)O[C@@H]2C(=O)O)O[C@H](CO)[C@@H](O)[C@@H]1O[C@@H]1O[C@H](C(=O)O)[C@@H](O)[C@H](O)[C@H]1O (stereo partly drawn) [HA6^AN, reference compound]
N (Link_TSG6; [1]): 1.04 ± 0.04
ΔG (Link_TSG6; [2]): -8.13 ± 0.02 kcal/mol
ΔH (Link_TSG6; [2]): -8.29 ± 0.19 kcal/mol
−TΔS (Link_TSG6; [2]): 0.162 ± 0.21 kcal/mol
Kd (Link_TSG6; Table 1, ITC, 25 °C, 5 mM MES pH 6.0, mean ± SEM, four titrations, read-out: KD): 1.09 ± 0.04 µM
−TΔS (Link_TSG6; Table 4, ITC, 25 °C, 5 mM MES pH 6.0, mean ± SEM): 0.162 ± 0.21 kcal•mol^a1
% Binding affinity Link_TSG6 (Link_TSG6; Table 6, relative to unmodified oligosaccharide of the same length, by ITC): 100%
Substrate for HC transfer (recombinant human TSG-6): No
Activity as substrate for HC transfer (text) (recombinant human TSG-6): did not
% HAn^AN: percentage of binding affinity (KB) compared to the unmodified oligosaccharide of the same length (hisCD44_HABD^20–169; MST): 100%
Kd (hisCD44_HABD^20–169; MST): 103 µM
% HAx^AN: percentage of binding affinity (KB) compared to the unmodified oligosaccharide of the same length (hisCD44_HABD^20–169; Table 5, MST): 100%
% Binding affinity hisCD44_HABD^20–169 (hisCD44_HABD^20–169): 100%

Substrate for HC transfer (recombinant human TSG-6): No
% of binding to hisCD44_HABD^20–169 compared to the unmodified oligosaccharide of the same length (hisCD44_HABD^20–169; MST): 260%
% HAn^AN: percentage of binding affinity (KB) compared to the unmodified oligosaccharide of the same length (hisCD44_HABD^20–169; MST): 260%
Kd (hisCD44_HABD^20–169; MST): 845 µM
% Binding affinity hisCD44_HABD^20–169 (hisCD44_HABD^20–169): 260%
Compound: CC(=O)N[C@H]1[C@H](O[C@H]2[C@H](O)[C@@H](O)[C@H](O[C@@H]([C@H](O)[C@H](O)CO)[C@H](CNc3cccc(C(=O)O)c3)NC(C)=O)O[C@@H]2C(=O)O)O[C@H](CO)[C@@H](O)[C@@H]1O[C@@H]1O[C@H](C(=O)O)[C@@H](O)[C@H](O)[C@H]1O [HA4-3AA]

Compound: CC(=O)N[C@H]1[C@H](O[C@H]2[C@H](O)[C@@H](O)[C@H](O[C@H]3[C@H](O)[C@@H](CO)O[C@@H](O[C@H]4[C@H](O)[C@@H](O)[C@H](O[C@@H]([C@H](O)[C@H](O)CO)[C@H](CNc5cccc(C(=O)O)c5)NC(C)=O)O[C@@H]4C(=O)O)[C@@H]3NC(C)=O)O[C@@H]2C(=O)O)O[C@H](CO)[C@@H](O)[C@@H]1O[C@@H]1O[C@H](C(=O)O)[C@@H](O)[C@H](O)[C@H]1O [HA6-3AA]
N (Link_TSG6; [1]): 1.05 ± 0.02
ΔG (Link_TSG6; [2]): -8.61 ± 0.10 kcal/mol
ΔH (Link_TSG6; [2]): -6.30 ± 0.11 kcal/mol
−TΔS (Link_TSG6; [2]): -2.21 ± 0.83 kcal/mol
Substrate for HC transfer (recombinant human TSG-6): No
Activity as substrate for HC transfer (text) (recombinant human TSG-6): No HC•HA6 complexes were observed
Activity as substrate for HC transfer (text) (recombinant human TSG-6; listed as HA63AA): could become covalently coupled to an HC

Compound: CC(=O)N[C@H]1[C@H](O[C@H]2[C@H](O)[C@@H](O)[C@H](O[C@H]3[C@H](O)[C@@H](CO)O[C@@H](O[C@H]4[C@H](O)[C@@H](O)[C@H](O[C@@H]([C@H](O)[C@H](O)CO)[C@H](CNc5ccc(C(=O)O)cc5)NC(C)=O)O[C@@H]4C(=O)O)[C@@H]3NC(C)=O)O[C@@H]2C(=O)O)O[C@H](CO)[C@@H](O)[C@@H]1O[C@@H]1O[C@H](C(=O)O)[C@@H](O)[C@H](O)[C@H]1O [HA6-4AA]
N (Link_TSG6; [1]): 1.02 ± 0.05
ΔG (Link_TSG6; [2]): -8.40 ± 0.08 kcal/mol
ΔH (Link_TSG6; [2]): -7.57 ± 0.26 kcal/mol
−TΔS (Link_TSG6; [2]): -0.83 ± 0.34 kcal/mol
Substrate for HC transfer (recombinant human TSG-6): Yes
Activity as substrate for HC transfer (text) (recombinant human TSG-6): weak substrates

Compound: CC(=O)N[C@H]1[C@H](O[C@H]2[C@H](O)[C@@H](O)[C@H](O[C@H]3[C@H](O)[C@@H](CO)O[C@@H](O[C@H]4[C@H](O)[C@@H](O)[C@H](O[C@@H]([C@H](O)[C@H](O)CO)[C@H](CNc5ccccc5C(=O)O)NC(C)=O)O[C@@H]4C(=O)O)[C@@H]3NC(C)=O)O[C@@H]2C(=O)O)O[C@H](CO)[C@@H](O)[C@@H]1O[C@@H]1O[C@H](C(=O)O)[C@@H](O)[C@H](O)[C@H]1O [HA6-2AA]
N (Link_TSG6; [1]): 1.03 ± 0.02
ΔG (Link_TSG6; [2]): -8.50 ± 0.04 kcal/mol
ΔH (Link_TSG6; [2]): -7.84 ± 0.43 kcal/mol
−TΔS (Link_TSG6; [2]): -0.66 ± 0.41 kcal/mol
Substrate for HC transfer (recombinant human TSG-6): Yes
Activity as substrate for HC transfer (text) (recombinant human TSG-6): good substrates; also recorded: could become covalently coupled to an HC

Compound: CC(=O)N[C@H]1[C@H](O[C@H]2[C@H](O)[C@@H](O)[C@H](O[C@H]3[C@H](O)[C@@H](CO)O[C@@H](O[C@H]4[C@H](O)[C@@H](O)[C@H](O[C@H]5[C@H](O)[C@@H](CO)O[C@@H](O[C@H]6[C@H](O)[C@@H](O)[C@H](O[C@@H]([C@H](O)[C@H](O)CO)[C@H](CNc7cccc(C(=O)O)c7)NC(C)=O)O[C@@H]6C(=O)O)[C@@H]5NC(C)=O)O[C@@H]4C(=O)O)[C@@H]3NC(C)=O)O[C@@H]2C(=O)O)O[C@H](CO)[C@@H](O)[C@@H]1O[C@@H]1O[C@H](C(=O)O)[C@@H](O)[C@H](O)[C@H]1O [HA8-3AA]
N (Link_TSG6; [1]): 1.05 ± 0.03
ΔG (Link_TSG6; [2]): -8.95 ± 0.13 kcal/mol
ΔH (Link_TSG6; [2]): -8.53 ± 0.33 kcal/mol
−TΔS (Link_TSG6; [2]): -0.60 ± 0.09 kcal/mol
Substrate for HC transfer (recombinant human TSG-6): Yes

Compound: CC(=O)N[C@H]1[C@H](O[C@H]2[C@H](O)[C@@H](O)[C@H](O[C@H]3[C@H](O)[C@@H](CO)O[C@@H](O[C@H]4[C@H](O)[C@@H](O)[C@H](O[C@H]5[C@H](O)[C@@H](CO)O[C@@H](O[C@H]6[C@H](O)[C@@H](O)[C@H](O[C@@H]([C@H](O)[C@H](O)CO)[C@H](CNc7ccccc7C(=O)O)NC(C)=O)O[C@@H]6C(=O)O)[C@@H]5NC(C)=O)O[C@@H]4C(=O)O)[C@@H]3NC(C)=O)O[C@@H]2C(=O)O)O[C@H](CO)[C@@H](O)[C@@H]1O[C@@H]1O[C@H](C(=O)O)[C@@H](O)[C@H](O)[C@H]1O [HA8-2AA]
N (Link_TSG6; [1]): 1.06 ± 0.03
ΔG (Link_TSG6; [2]): -7.83 ± 0.13 kcal/mol
ΔH (Link_TSG6; [2]): -12.55 ± 0.59 kcal/mol
−TΔS (Link_TSG6; [2]): 4.69 ± 0.73 kcal/mol
Substrate for HC transfer (recombinant human TSG-6): Yes
Activity as substrate for HC transfer (text) (recombinant human TSG-6): retained full activity as substrates

Compound: CC(=O)N[C@H]1[C@H](O[C@H]2[C@H](O)[C@@H](O)[C@H](O[C@H]3[C@H](O)[C@@H](CO)O[C@@H](O[C@H]4[C@H](O)[C@@H](O)[C@H](O[C@H]5[C@H](O)[C@@H](CO)O[C@@H](O[C@H]6[C@H](O)[C@@H](O)[C@H](O[C@@H]([C@H](O)[C@H](O)CO)[C@H](CNc7ccc(C(=O)O)cc7)NC(C)=O)O[C@@H]6C(=O)O)[C@@H]5NC(C)=O)O[C@@H]4C(=O)O)[C@@H]3NC(C)=O)O[C@@H]2C(=O)O)O[C@H](CO)[C@@H](O)[C@@H]1O[C@@H]1O[C@H](C(=O)O)[C@@H](O)[C@H](O)[C@H]1O [HA8-4AA]
N (Link_TSG6; [1]): 0.86 ± 0.02
ΔG (Link_TSG6; [2]): -8.37 ± 0.04 kcal/mol
ΔH (Link_TSG6; [2]): -11.53 ± 0.25 kcal/mol
−TΔS (Link_TSG6; [2]): 3.17 ± 0.26 kcal/mol
Substrate for HC transfer (recombinant human TSG-6): Yes
Activity as substrate for HC transfer (text) (recombinant human TSG-6): somewhat weaker substrate than HA8^AN
